Assay results from patent US11000033B2, “Ketone or oxime compound, and herbicide” (NISSAN CHEMICAL CORPORATION, priority 2014, dated 2021).

Columns and labels:
Assay type in all cases: in vivo
[1] = test system: Echinochloa crus-galli var. crus-galli; assay: Test Example 4: herbicidal effect by soil treatment (symbol H); conditions: 320 g/ha
Method in brief: (§1)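 Seeds were sown in sterilized diluvial soil, covered with about 1.5 cm of soil, and the soil surface was sprayed with a water-diluted emulsion of the compound at a predetermined rate. Plants grew in a greenhouse at 25° C. to 30° C.; effects were scored visually 3 weeks after application.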

[2] = test system: Chenopodium album; assay: Test Example 5: herbicidal effect by foliage application, plastic box (symbol O); conditions: 320 g/ha, 3 weeks after application
Method in brief: (§2)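 Visual herbicidal score, taken three weeks post-application, of seedlings sprayed on the foliage with water-diluted emulsion at a predetermined amount; plants were 14 days old, greenhouse-raised at 25° C. to 30° C.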

[3] = test system: Scirpus juncoides; assay: Test Example 2: herbicidal activity, application during weed generation in submerged conditions (symbol B); conditions: Table 23; application herbicide amount 320 g/ha; grade 0-5 by criteria of Test Example 1
Method in brief: (§3)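 Weeds emerging under flooded conditions were treated with compound formulated as an emulsion and diluted with water to the intended herbicide amount, poured onto the surface of 4 cm standing water. Seeds had been co-sown in alluvial soil; plants grew at 25° C. to 30° C. and were assessed after 3 weeks.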

[4] = test system: Amaranthus retroflexus; assay: Test Example 5: herbicidal effect by foliage application, plastic box (symbol N); conditions: 320 g/ha, 3 weeks after application
Method in brief: as §2

[5] = test system: soybean; assay: Test Example 4: effect on crop by soil treatment (symbol d); conditions: 320 g/ha
Method in brief: (§4)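 Crop seeds, among them rice, wheat, beet and rapeseed, were sown in sterilized diluvial soil and covered with about 1.5 cm of soil. Boxes were kept in a greenhouse at 25° C. to 30° C. for plant growth.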

[6] = test system: Cyperus difformis; assay: Test Example 3: herbicidal effect by foliage application, Wagner pot (symbol E); conditions: application herbicide amount 320 g/ha
Method in brief: (§5)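 Alluvial soil was flooded to a depth of 0.1–0.5 cm, seeded with the weeds and rice, and kept in a greenhouse at 25–30 °C. After 14 days of growth, the foliage received a small-sprayer application of emulsion diluted to the intended rate; injury was rated at 3 weeks.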

[7] = test system: beet; assay: Test Example 4: effect on crop by soil treatment (symbol f); conditions: 320 g/ha
Method in brief: as §4

[8] = test system: Amaranthus retroflexus; assay: Test Example 4: herbicidal effect by soil treatment (symbol N); conditions: 320 g/ha
Method in brief: as §1

[9] = test system: Echinochloa crus-galli var. crus-galli; assay: Test Example 3: herbicidal effect by foliage application, Wagner pot (symbol H); conditions: application herbicide amount 320 g/ha
Method in brief: as §5

[10] = test system: Abutilon theophrasti; assay: Test Example 5: herbicidal effect by foliage application, plastic box (symbol M); conditions: 320 g/ha, 3 weeks after application
Method in brief: as §2

[11] = test system: Lolium multiflorum Lam.; assay: Test Example 4: herbicidal effect by soil treatment (symbol K); conditions: 320 g/ha
Method in brief: as §1

[12] = test system: beet; assay: Test Example 5: effect on crop by foliage application, plastic box (symbol f); conditions: 320 g/ha, 3 weeks after application
Method in brief: (§6)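 Crop seed is sown alongside grass and broadleaf weed species in spots in sterilized diluvial soil, then covered to a depth of about 1.5 cm. Plants grow in a greenhouse kept at 25° C. to 30° C.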

[13] = test system: Echinochloa oryzacola Vasing.; assay: Test Example 2: herbicidal activity, application during weed generation in submerged conditions (symbol A); conditions: Table 23; application herbicide amount 320 g/ha; grade 0-5 by criteria of Test Example 1
Method in brief: as §3

[14] = test system: wheat; assay: Test Example 4: effect on crop by soil treatment (symbol e); conditions: 320 g/ha
Method in brief: as §4

[15] = test system: Stellaria media; assay: Test Example 5: herbicidal effect by foliage application, plastic box (symbol P); conditions: 320 g/ha, 3 weeks after application
Method in brief: as §2

[16] = test system: rice plant; assay: Test Example 5: effect on crop by foliage application, plastic box (symbol b); conditions: 320 g/ha, 3 weeks after application
Method in brief: as §6

[17] = test system: Setaria viridis; assay: Test Example 5: herbicidal effect by foliage application, plastic box (symbol G); conditions: 320 g/ha, 3 weeks after application
Method in brief: as §2

[18] = test system: Chenopodium album; assay: Test Example 4: herbicidal effect by soil treatment (symbol O); conditions: 320 g/ha
Method in brief: as §1

[19] = test system: Alopecurus myosuroides; assay: Test Example 4: herbicidal effect by soil treatment (symbol J); conditions: 320 g/ha
Method in brief: as §1

[20] = test system: Veronica persica; assay: Test Example 5: herbicidal effect by foliage application, plastic box (symbol R); conditions: 320 g/ha, 3 weeks after application
Method in brief: as §2

Row | SMILES | H: Echinochloa crus-galli var. crus-galli, herbicidal effect grade [1] | O: Chenopodium album, herbicidal effect (criteria 0-5) [2] | Herbicidal effect grade, B: Scirpus juncoides [3] | N: Amaranthus retroflexus, herbicidal effect (criteria 0-5) [4] | d: soybean, effect grade on crop [5] | herbicidal effect on E, grade 0-5 [6] | f: beet, effect grade on crop [7] | N: Amaranthus retroflexus, herbicidal effect grade [8] | herbicidal effect on H (Echinochloa crus-galli var. crus-galli), grade 0-5 [9] | M: Abutilon theophrasti, herbicidal effect (criteria 0-5) [10] | K: Lolium multiflorum Lam., herbicidal effect grade [11] | f: beet, effect on crop (criteria 0-5) [12] | Herbicidal effect grade, A: Echinochloa oryzacola Vasing. [13] | e: wheat, effect grade on crop [14] | P: Stellaria media, herbicidal effect (criteria 0-5) [15] | b: directly sowed rice plant, effect on crop (criteria 0-5) [16] | G: Setaria viridis, herbicidal effect (criteria 0-5) [17] | O: Chenopodium album, herbicidal effect grade [18] | J: Alopecurus myosuroides, herbicidal effect grade [19] | R: Veronica persica, herbicidal effect (criteria 0-5) [20]
1 | CC(CC1CC(O)=C(c2c(C)cc(C)cc2C)C1=O)=NOCc1cccc(Cl)c1 (centres unmarked) [1-114] | 0 (Herbicidal ratio of 5% or lower (almost no effect)) | 3 (Herbicidal ratio of 40% or higher and lower than 70%) | 3 (Herbicidal ratio of 40% or higher and lower than 70%) | 1 (Herbicidal ratio of 5% or higher and lower than 20%) | 0 (Herbicidal ratio of 5% or lower (almost no effect)) | 2 (Herbicidal ratio of 20% or higher and lower than 40%) | 0 (Herbicidal ratio of 5% or lower (almost no effect)) | 0 (Herbicidal ratio of 5% or lower (almost no effect)) | 5 (Herbicidal ratio of 90% or more (almost completely withered)) | 1 (Herbicidal ratio of 5% or higher and lower than 20%) | 5 (Herbicidal ratio of 90% or more (almost completely withered)) | 0 (Herbicidal ratio of 5% or lower (almost no effect)) | 4 (Herbicidal ratio of 70% or higher and lower than 90%) | 0 (Herbicidal ratio of 5% or lower (almost no effect)) | 3 (Herbicidal ratio of 40% or higher and lower than 70%) | 5 (Herbicidal ratio of 90% or more (almost completely withered)) | 5 (Herbicidal ratio of 90% or more (almost completely withered)) | 0 (Herbicidal ratio of 5% or lower (almost no effect)) | 4 (Herbicidal ratio of 70% or higher and lower than 90%) | 2 (Herbicidal ratio of 20% or higher and lower than 40%)
2 | CC(CC1CC(O)=C(c2c(C)cc(C)cc2C)C1=O)=NOCc1ccccc1C(F)(F)F (centres unmarked) [1-116] | 3 (Herbicidal ratio of 40% or higher and lower than 70%) | 3 (Herbicidal ratio of 40% or higher and lower than 70%) | 3 (Herbicidal ratio of 40% or higher and lower than 70%) | 0 (Herbicidal ratio of 5% or lower (almost no effect)) | 0 (Herbicidal ratio of 5% or lower (almost no effect)) | 4 (Herbicidal ratio of 70% or higher and lower than 90%) | 0 (Herbicidal ratio of 5% or lower (almost no effect)) | 5 (Herbicidal ratio of 90% or more (almost completely withered)) | 5 (Herbicidal ratio of 90% or more (almost completely withered)) | 1 (Herbicidal ratio of 5% or higher and lower than 20%) | 4 (Herbicidal ratio of 70% or higher and lower than 90%) | 0 (Herbicidal ratio of 5% or lower (almost no effect)) | 2 (Herbicidal ratio of 20% or higher and lower than 40%) | 0 (Herbicidal ratio of 5% or lower (almost no effect)) | 2 (Herbicidal ratio of 20% or higher and lower than 40%) | 4 (Herbicidal ratio of 70% or higher and lower than 90%) | 5 (Herbicidal ratio of 90% or more (almost completely withered)) | 0 (Herbicidal ratio of 5% or lower (almost no effect)) | 4 (Herbicidal ratio of 70% or higher and lower than 90%) | 3 (Herbicidal ratio of 40% or higher and lower than 70%)
3 | CC(CC1CC(O)=C(c2c(C)cc(C)cc2C)C1=O)=NOCc1cccc(C(F)(F)F)c1 (centres unmarked) [1-117] | 5 (Herbicidal ratio of 90% or more (almost completely withered)) | 0 (Herbicidal ratio of 5% or lower (almost no effect)) | 3 (Herbicidal ratio of 40% or higher and lower than 70%) | 1 (Herbicidal ratio of 5% or higher and lower than 20%) | 0 (Herbicidal ratio of 5% or lower (almost no effect)) | 5 (Herbicidal ratio of 90% or more (almost completely withered)) | 0 (Herbicidal ratio of 5% or lower (almost no effect)) | 0 (Herbicidal ratio of 5% or lower (almost no effect)) | 5 (Herbicidal ratio of 90% or more (almost completely withered)) | 1 (Herbicidal ratio of 5% or higher and lower than 20%) | 4 (Herbicidal ratio of 70% or higher and lower than 90%) | 0 (Herbicidal ratio of 5% or lower (almost no effect)) | 4 (Herbicidal ratio of 70% or higher and lower than 90%) | 0 (Herbicidal ratio of 5% or lower (almost no effect)) | 3 (Herbicidal ratio of 40% or higher and lower than 70%) | 5 (Herbicidal ratio of 90% or more (almost completely withered)) | 5 (Herbicidal ratio of 90% or more (almost completely withered)) | 0 (Herbicidal ratio of 5% or lower (almost no effect)) | 4 (Herbicidal ratio of 70% or higher and lower than 90%) | 3 (Herbicidal ratio of 40% or higher and lower than 70%)
4 | COC(=O)c1ccc(CON=C(C)CC2CC(O)=C(c3c(C)cc(C)cc3C)C2=O)cc1 (centres unmarked) [1-118] | 4 (Herbicidal ratio of 70% or higher and lower than 90%) | 3 (Herbicidal ratio of 40% or higher and lower than 70%) | 0 (Herbicidal ratio of 5% or lower (almost no effect)) | 0 (Herbicidal ratio of 5% or lower (almost no effect)) | 0 (Herbicidal ratio of 5% or lower (almost no effect)) | 0 (Herbicidal ratio of 5% or lower (almost no effect)) | 0 (Herbicidal ratio of 5% or lower (almost no effect)) | 0 (Herbicidal ratio of 5% or lower (almost no effect)) | 4 (Herbicidal ratio of 70% or higher and lower than 90%) | 0 (Herbicidal ratio of 5% or lower (almost no effect)) | 3 (Herbicidal ratio of 40% or higher and lower than 70%) | 0 (Herbicidal ratio of 5% or lower (almost no effect)) | 2 (Herbicidal ratio of 20% or higher and lower than 40%) | 0 (Herbicidal ratio of 5% or lower (almost no effect)) | 3 (Herbicidal ratio of 40% or higher and lower than 70%) | 4 (Herbicidal ratio of 70% or higher and lower than 90%) | 0 (Herbicidal ratio of 5% or lower (almost no effect)) | 0 (Herbicidal ratio of 5% or lower (almost no effect)) | 3 (Herbicidal ratio of 40% or higher and lower than 70%) | 3 (Herbicidal ratio of 40% or higher and lower than 70%)
